Measurements from the supplement of paper PMC11451515.

Tested on: NOMO1
Assay: cell viability relative to DMSO control; higher = less cytotoxic
Conditions: 48 h
Method in brief: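 Library compounds in DMSO were pin-dosed into 1536-well plates (5 μl) holding NOMO1 or SEM (500 cells/well) or P12-Ichikawa (1000 cells/well) leukemia cells, across an 11-point threefold series of 47 μM to 0.79 nM. Each cell line had been adapted for at least four passages in each medium. CellTiter-Glo One luminescence was read after 48 h at 37°C. Viability is the per-plate percentage relative to DMSO wells, with cell-free wells as background.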

[1] = HPLM + 10% dialyzed FBS, 0.000781 µM
[2] = HPLM + 10% dialyzed FBS, 0.00234 µM
[3] = HPLM + 10% dialyzed FBS, 0.00702 µM
[4] = HPLM + 10% dialyzed FBS, 0.0211 µM
[5] = HPLM + 10% dialyzed FBS, 0.0632 µM
[6] = HPLM + 10% dialyzed FBS, 0.19 µM
[7] = HPLM + 10% dialyzed FBS, 0.569 µM
[8] = HPLM + 10% dialyzed FBS, 1.71 µM
[9] = HPLM + 10% dialyzed FBS, 5.12 µM
[10] = HPLM + 10% dialyzed FBS, 15.4 µM
[11] = HPLM + 10% dialyzed FBS, 46.1 µM
[12] = RPMI 5 mM glucose + 10% FBS, 0.000781 µM
[13] = RPMI 5 mM glucose + 10% FBS, 0.00234 µM
[14] = RPMI 5 mM glucose + 10% FBS, 0.00702 µM
[15] = RPMI 5 mM glucose + 10% FBS, 0.0211 µM
[16] = RPMI 5 mM glucose + 10% FBS, 0.0632 µM
[17] = RPMI 5 mM glucose + 10% FBS, 0.19 µM
[18] = RPMI 5 mM glucose + 10% FBS, 0.569 µM
[19] = RPMI 5 mM glucose + 10% FBS, 1.71 µM
[20] = RPMI 5 mM glucose + 10% FBS, 5.12 µM
[21] = RPMI 5 mM glucose + 10% FBS, 15.4 µM
[22] = RPMI 5 mM glucose + 10% FBS, 46.1 µM
[23] = RPMI 5 mM glucose + 10% dialyzed FBS, 0.000781 µM
[24] = RPMI 5 mM glucose + 10% dialyzed FBS, 0.00234 µM
[25] = RPMI 5 mM glucose + 10% dialyzed FBS, 0.00702 µM
[26] = RPMI 5 mM glucose + 10% dialyzed FBS, 0.0211 µM
[27] = RPMI 5 mM glucose + 10% dialyzed FBS, 0.0632 µM
[28] = RPMI 5 mM glucose + 10% dialyzed FBS, 0.19 µM
[29] = RPMI 5 mM glucose + 10% dialyzed FBS, 0.569 µM
[30] = RPMI 5 mM glucose + 10% dialyzed FBS, 1.71 µM
[31] = RPMI 5 mM glucose + 10% dialyzed FBS, 5.12 µM
[32] = RPMI 5 mM glucose + 10% dialyzed FBS, 15.4 µM
[33] = RPMI 5 mM glucose + 10% dialyzed FBS, 46.1 µM

Compound	cell viability [1] [%]	cell viability [2] [%]	cell viability [3] [%]	cell viability [4] [%]	cell viability [5] [%]	cell viability [6] [%]	cell viability [7] [%]	cell viability [8] [%]	cell viability [9] [%]	cell viability [10] [%]	cell viability [11] [%]	cell viability [12] [%]	cell viability [13] [%]	cell viability [14] [%]	cell viability [15] [%]	cell viability [16] [%]	cell viability [17] [%]	cell viability [18] [%]	cell viability [19] [%]	cell viability [20] [%]	cell viability [21] [%]	cell viability [22] [%]	cell viability [23] [%]	cell viability [24] [%]	cell viability [25] [%]	cell viability [26] [%]	cell viability [27] [%]	cell viability [28] [%]	cell viability [29] [%]	cell viability [30] [%]	cell viability [31] [%]	cell viability [32] [%]	cell viability [33] [%]
COc1cc([C@@H]2c3cc4c(cc3[C@@H](O[C@@H]3O[C@@H]5CO[C@@H](c6cccs6)O[C@H]5[C@H](O)[C@H]3O)[C@H]3COC(=O)[C@H]23)OCO4)cc(OC)c1O	92.7	97.4	115	111	103	89.6	97.7	34.3	116	31.1	13.8	85.3	85.6	89.7	97.2	81.7	99.3	91.2	22.9	101	22.4	12.7	89.5	82.9	91	89.6	93.2	90.6	101	32.4	99.3	25.2	16.7
COc1cc(N[S+](=O)([O-])c2ccc(N)cc2)nc(OC)n1	102	106	111	116	109	92.5	114	112	99.3	132	109	107	106	116	111	124	111	112	103	96.3	111	120	105	91.9	104	103	102	115	110	99.9	94	116	111
CN(C)CCCNC(=O)c1ccc(-c2cc(O)c3ncccc3c2)cc1	113	110	109	107	105	85.9	117	98.8	114	86.7	60.1	89.1	89.5	96.2	99.5	103	84	86.1	87.7	97.2	85.9	82.4	96.3	94.6	112	98.1	102	112	94.2	101	106	91.1	62.8
CC[C@@]1(O)C[C@H](O[C@H]2C[C@H](N(C)C)[C@H](O[C@H]3C[C@H](O)[C@H](O[C@H]4CCC(=O)[C@H](C)O4)[C@H](C)O3)[C@H](C)O2)c2c(cc3c(c2O)C(=O)c2c(O)cccc2C3=O)[C@H]1C(=O)OC	109	106	106	106	122	101	109	82	67	78.5	71.9	95.7	102	95.6	97.6	106	93.8	95.6	64.2	76.6	75.8	85	91.5	84.7	94.4	98.1	102	90.4	93.9	67.7	71.6	75.3	72.1
C[S+]([O-])c1ccc(-c2nc(-c3ccc(F)cc3)c(-c3ccncc3)[nH]2)cc1 (centres undefined)	78.8	101	108	106	106	117	106	66.2	35.1	3.41	2.33	80	90.4	105	95	113	96.3	106	75.9	29.7	4.04	2.28	83.5	86.2	87.3	98.2	99.1	86.5	99.1	64.6	34.6	4.16	2.47
CO[C@H]1C[C@@H]2CC[C@@H](C)[C@@](O)(O2)C(=O)C(=O)N2CCCC[C@H]2C(=O)O[C@H]([C@H](C)C[C@@H]2CC[C@@H](OCCO)[C@H](OC)C2)CC(=O)[C@H](C)/C=C(/C)[C@@H](O)[C@@H](OC)C(=O)[C@H](C)C[C@H](C)\C=C/C=C\C=C/1C	91.8	97.5	95.7	92.9	81.7	95.4	80.7	68.8	73.8	64.1	57.4	86.5	94.6	97.8	99.4	98.4	94.2	85.4	88	84.8	61.3	70.8	85	91.2	84.5	76.7	85	78.1	78.7	73.1	76.3	58.9	61.5
CC(NCc1ccc2c(c1)[nH]/c(=N\C(=O)c1ccc(-c3cn[nH]c3)s1)n2CC(C)(C)O)C(C)(C)C (centres undefined)	110	109	113	112	106	103	74.4	54.1	9.83	5.43	4.17	110	104	109	98.7	102	103	98.7	87.2	10.8	5.4	3.08	116	100	110	99.5	101	101	92.9	69.7	8.51	4.24	2.97
CC(C)(C)NC(=O)[C@H]1CC[C@H]2[C@@H]3CC[C@H]4NC(=O)\C=C/[C@]4(C)[C@H]3CC[C@]12C	76.6	94.6	109	108	107	99.8	112	84.3	27.2	26.8	27.4	101	95.7	102	96.5	96.6	111	109	71	20.9	18.7	14.5	95.8	105	100	107	107	108	115	102	26.3	25.2	18.8
O=C1NC(=O)/C(=C/c2cccc(C(F)(F)F)c2)S1	114	95.1	96.8	113	102	98.4	108	99.1	92.8	96.9	90	90.3	90.2	94.1	101	106	97.8	97.8	93.2	101	96.5	80.1	95.5	99.6	99	104	93.1	92.9	93.2	108	103	87.9	92.2
C#C[C@]1(O)CC[C@H]2[C@@H]3CCc4cc(OC)ccc4[C@H]3CC[C@@]21C	108	123	114	118	117	114	107	105	109	102	95.4	117	124	108	110	123	123	117	108	106	104	93.5	115	107	106	124	120	108	103	109	104	103	107
CC(C)NCC(O)COc1ccc(CCOCC2CC2)cc1 (centres undefined)												118	128	107	109	105	107	109	110	114	102	19.9	121	125	122	117	119	118	129	113	116	99.1	20.9
O=C1NC(O)CCN1[C@@H]1O[C@H](CO)[C@@H](O)[C@H]1O (some centres undefined)	145	124	123	142	113	131	143	116	111	92.2	21	121	110	104	112	110	110	105	105	109	108	32.3	112	108	113	108	110	110	125	126	111	106	34.8
CN[S+](=O)([O-])CCc1ccc2[nH]cc(C3CCN(C)CC3)c2c1	91.2	95.9	91.3	114	112	107	106	101	98.6	108	107	83	84.2	91.3	86.6	99.7	89.5	87.6	92.7	102	87.8	96.4	91.5	83.4	90.3	95.4	93.3	104	105	96.2	102	85.3	89.3
COc1ccnc(C[S+]([O-])c2nc3cc(OC(F)F)ccc3[nH]2)c1OC (centres undefined)	111	124	119	131	124	134	126	115	134	128	126																						
